Measured values from patent US20100240641A1, “Aldosterone Synthase and/or 11B-hydroxylase Inhibitors” (priority 2006, published 2010).

Experiments:
aldosterone synthase = target: T1, aldosterone synthase (Homo sapiens, UniProt P19099); test: In vitro aldosterone synthase inhibition: aldosterone production in Ang II-stimulated NCI-H295R cells; type: cell-based; settings: read-out: AS IC50
T1 construct: host or cells: NCI-H295R
T1 sequence (P19099 25-503): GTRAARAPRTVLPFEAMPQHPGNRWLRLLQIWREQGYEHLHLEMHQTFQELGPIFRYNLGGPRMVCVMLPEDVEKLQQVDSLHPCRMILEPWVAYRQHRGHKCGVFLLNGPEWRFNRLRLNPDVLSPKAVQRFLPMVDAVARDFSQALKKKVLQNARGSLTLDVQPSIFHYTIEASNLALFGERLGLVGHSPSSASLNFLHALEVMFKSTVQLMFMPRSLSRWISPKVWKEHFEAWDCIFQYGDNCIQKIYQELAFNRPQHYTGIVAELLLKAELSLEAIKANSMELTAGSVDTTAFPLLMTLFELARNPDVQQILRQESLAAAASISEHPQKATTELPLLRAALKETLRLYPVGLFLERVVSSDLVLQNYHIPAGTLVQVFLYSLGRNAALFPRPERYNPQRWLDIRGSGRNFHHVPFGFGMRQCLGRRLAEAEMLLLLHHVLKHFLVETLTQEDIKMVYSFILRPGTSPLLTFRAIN
Text: In particular, the aldosterone synthase inhibitory activities in vitro can be determined by the following assay.
Human adrenocortical carcinoma NCI-H295R cell line is obtained from American Type Culture Collection (Manassas, Va.). Insulin/transferrin/selenium (ITS)-A supplement (100×), DMEM/F-12, antibiotic/antimycotic (100×), and fetal calf serum (FCS) are purchased from Gibco (Grand Island, N.Y.). Anti-mouse PVT scintillation proximity assay (SPA) beads and NBS 96-well plates are obtained from Amersham (Piscataway, N.J.) and Corning (Acton, Mass.), respectively. Solid black 96-well flat bottom plates were purchased from Costar (Corning; NY). Aldosterone and angiotensin (Ang II) are purchased from Sigma (St. Louis, Mo.). D[1,2,6,7-^3H(N)]aldosterone was acquired from PerkinElmer (Boston, Mass.). Nu-serum was a product of BD Biosciences (Franklin Lakes, N.J.). The NADPH regenerating system, dibenzylfluorescein (DBF), and human aromatase Supersomes® are obtained from Gentest (Woburn, Mass.). […]
Measurement of aldosterone activity can also be performed using a 96-well plate format. […] The amount of aldosterone in each sample is calculated by comparing with a standard curve generated using known quantities of the hormone.

CYP11B1 = target: T2, CYP11B1 (Homo sapiens, UniProt P15538); test: In vitro CYP11B1 inhibition: steroid release from NCI-H295R cells; type: cell-based; settings: 10 nM compound, read-out: 11B1 % Inhibition @ 10 nM
T2 construct: Thus, the NCl-H295R cells have Cyp11 B1 (steroid 11 p-hydroxylase); host or cells: NCI-H295R
T2 sequence (P15538 25-503): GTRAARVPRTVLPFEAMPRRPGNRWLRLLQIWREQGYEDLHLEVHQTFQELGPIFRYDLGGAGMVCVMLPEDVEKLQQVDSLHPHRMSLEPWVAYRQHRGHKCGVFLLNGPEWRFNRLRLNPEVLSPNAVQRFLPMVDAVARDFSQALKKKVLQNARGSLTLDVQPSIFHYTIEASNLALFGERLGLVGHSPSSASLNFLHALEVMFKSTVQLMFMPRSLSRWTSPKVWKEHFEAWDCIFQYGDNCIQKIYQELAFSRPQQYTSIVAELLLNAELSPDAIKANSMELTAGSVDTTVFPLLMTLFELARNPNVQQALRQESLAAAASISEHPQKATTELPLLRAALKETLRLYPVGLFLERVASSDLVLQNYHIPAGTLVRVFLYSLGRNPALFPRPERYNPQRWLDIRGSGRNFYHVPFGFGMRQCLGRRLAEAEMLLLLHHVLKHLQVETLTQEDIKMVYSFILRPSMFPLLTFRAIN
Text: The in vitro inhibitory activities for CYP11B1 can be determined by the following assay.
The cell line NCI-H295R was originally isolated from an adrenocortical carcinoma and has been characterized in the literature through the stimulable secretion of steroid hormones and the presence of the enymes essential for steroidogenesis. Thus, the NCl-H295R cells have Cyp11 B1 (steroid 11 p-hydroxylase). The cells show the physiological property of zonally undifferentiated human foetal adrenocortical cells which, however, have the capacity to produce the steroid hormones which are formed in the three, phenotypically distinguishable zones in the adult adrenal cortex. […]
The excretion of aldosterone, cortisol, corticosterone and estradiol/estrone into the culture medium can be detected and quantified by commercially available, specific monoclonal antibodies in radioimmunoassays in accordance with the manufacturer's instructions.
Inhibition of the release of certain steroids can be used as a measure of the respective enzyme inhibition by the added test compounds. The dose-dependent inhibition of enzymic activity by a compound is calculated by means of an inhibition plot which is characterized by an IC50. […]

Structure (SMILES)	IC50 (aldosterone synthase) [nM]	inhibition at 0.01 µM (CYP11B1) [%]
CCC1(c2ccc(C#N)cc2OC)C(=O)N(Cc2ccc(Cl)cc2)Cc2cncn21 (stereo not drawn) [Compound 1, 4-[7-(4-Chloro-benzyl)-5-ethyl-6-oxo-5,6,7,8-tetrahydro-imidazo[1,5-a]pyrazin-5-yl]-3-methoxy-benzonitrile]	12	
CCC1(c2ccc(C#N)cc2F)C(=O)N(Cc2ccc(F)cc2)Cc2cncn21 (stereo not drawn) [Compound 7, 4-[5-Ethyl-7-(4-fluoro-benzyl)-6-oxo-5,6,7,8-tetrahydro-imidazo[1,5-a]pyrazin-5-yl]-3-fluoro-benzonitrile]		100
CCC1(c2ccc(C)cc2OC)C(=O)N(Cc2ccc(F)cc2)Cc2cncn21 (stereo not drawn) [Compound 8, 5-(2-Methoxy-4-methyl-phenyl)-5-ethyl-7-(4-fluoro-benzyl)-7,8-dihydro-imidazo[1,5-a]pyrazin-6-one]		98
